Results as given in ChEMBL document CHEMBL1143804, “Synthesis and antibacterial evaluation of 1beta-methyl-2-[5-(1-methoxyimino-2-substituted sulfonamide ethyl)pyrrolidin-3-ylthio]carbapenems and their related compounds” (2007).

Assays:
[1] = system: Escherichia coli; experiment: Antibacterial activity against Escherichia coil 1507; type: functional
[2] = system: Enterococcus faecium; experiment: Antibacterial activity against Streptococcus faecium 77A; type: functional
[3] = system: Staphylococcus aureus; experiment: Antibacterial activity against Staphylococcus aureus 209P; type: functional
[4] = system: Serratia marcescens; experiment: Antibacterial activity against Serratia marcescens 370; type: functional
[5] = system: Staphylococcus aureus; experiment: Antibacterial activity against Staphylococcus aureus 503; type: functional
[6] = system: Streptococcus agalactiae; experiment: Antibacterial activity against Streptococcus agalactiae B; type: functional
[7] = system: Serratia marcescens; experiment: Antibacterial activity against Serratia marcescens 6093; type: functional
[8] = system: Escherichia coli; experiment: Antibacterial activity against Escherichia coil V6311/65; type: functional
[9] = Antibacterial activity against Salmonella oranienberg; type: functional, Salmonella enterica subsp. enterica serovar Oranienburg; settings: Salmonella enterica
[10] = system: Serratia marcescens; experiment: Antibacterial activity against Serratia marcescens 14273; type: functional
[11] = system: Burkholderia cepacia; experiment: Antibacterial activity against Pseudomonas cepacia; type: functional
[12] = system: Priestia megaterium; experiment: Antibacterial activity against Bacillus megaterium; type: functional
[13] = system: Pseudomonas aeruginosa; experiment: Antibacterial activity against Pseudomonas aeruginosa 9027; type: functional
[14] = system: Providencia rettgeri; experiment: Antibacterial activity against Proteus rettgeri 936; type: functional
[15] = system: Escherichia coli; experiment: Antibacterial activity against Escherichia coli 0126; type: functional
[16] = Antibacterial activity against Salmonella give; type: functional, Salmonella enterica subsp. enterica serovar Give; settings: Salmonella enterica
[17] = system: Salmonella paratyphi; experiment: Antibacterial activity against Salmonella paratyphi A; type: functional, Salmonella enterica subsp. enterica serovar Paratyphi A; settings: Salmonella enterica
[18] = system: Escherichia coli; experiment: Antibacterial activity against Escherichia coli 086; type: functional
[19] = system: Enterobacter cloacae; experiment: Antibacterial activity against Enterobactor cloacae 1321E; type: functional
[20] = system: Proteus mirabilis; experiment: Antibacterial activity against Proteus mirabilis 174/3; type: functional
[21] = system: Proteus mirabilis; experiment: Antibacterial activity against Proteus mirabilis 112/3; type: functional
[22] = system: Enterobacter cloacae; experiment: Antibacterial activity against Enterobacter cloacae 417; type: functional
[23] = system: Salmonella typhi; experiment: Antibacterial activity against Salmonella typhi; type: functional, Salmonella enterica subsp. enterica serovar Typhi; settings: Salmonella enterica
[24] = system: Pseudomonas aeruginosa; experiment: Antibacterial activity against Pseudomonas aeruginosa 110/2; type: functional
[25] = system: Enterobacter cloacae; experiment: Antibacterial activity against Enterobacter cloacae; type: functional
[26] = system: Staphylococcus aureus; experiment: Antibacterial activity against Staphylococcus aureus SG511; type: functional
[27] = system: Streptococcus pyogenes; experiment: Antibacterial activity against Streptococcus pyogenes 77A; type: functional
[28] = system: Klebsiella pneumoniae; experiment: Antibacterial activity against Klebsiella pneumonise 477; type: functional
[29] = system: Salmonella; experiment: Antibacterial activity against Salmonella orion; type: functional
[30] = system: Pseudomonas aeruginosa; experiment: Antibacterial activity against Pseudomonas aeruginosa 880/2; type: functional
[31] = system: Proteus vulgaris; experiment: Antibacterial activity against Proteus vulgaris 868; type: functional
[32] = system: Enterococcus durans; experiment: Antibacterial activity against Streptococcus durans D; type: functional
[33] = system: Escherichia coli; experiment: Antibacterial activity against Escherichia coli DC2; type: functional
[34] = system: Staphylococcus aureus; experiment: Antibacterial activity against Staphylococcus aureus 285; type: functional
[35] = system: Bacillus subtilis; experiment: Antibacterial activity against Bacillus subtilts ATCC 6633; type: functional
[36] = system: Klebsiella aerogenes; experiment: Antibacterial activity against Klebsiella aerogenes 1522E; type: functional
[37] = system: Providencia rettgeri; experiment: Antibacterial activity against Proteus rettgeri 937; type: functional
[38] = system: Escherichia coli; experiment: Antibacterial activity against Escherichia coli TEM; type: functional
[39] = system: Pasteurella multocida; experiment: Antibacterial activity against Pasteurella multocida; type: functional
[40] = system: Corynebacterium diphtheriae; experiment: Antibacterial activity against Corynebacterium diphtheriae; type: functional
[41] = system: Trueperella pyogenes; experiment: Antibacterial activity against Corynebacterium pyogenes; type: functional
[42] = system: Micrococcus luteus; experiment: Antibacterial activity against Micrococcus luteus ATCC 9341; type: functional
[43] = system: Staphylococcus aureus; experiment: Antibacterial activity against Staphylococcus aureus giorgio; type: functional
[44] = system: Pseudomonas aeruginosa; experiment: Antibacterial activity against Pseudomonas aeruginosa 77/2; type: functional
[45] = system: Salmonella typhimurium; experiment: Antibacterial activity against Salmonella Typhimurium; type: functional, Salmonella enterica subsp. enterica serovar Typhimurium; settings: Salmonella enterica
[46] = system: Streptococcus pyogenes; experiment: Antibacterial activity against Streptococcus pyogenes 308A; type: functional
[47] = system: Escherichia coli; experiment: Antibacterial activity against Escherichia coli 0114; type: functional

Measured: MIC

CC(O)[C@H]1C(=O)N2C(C(=O)O)=C(SCCNC=N)C[C@H]12 (single isomer, unassigned) [IMIPENEM ANHYDROUS]
0.781 µg/mL: [13] | [45]
0.8 µg/mL: [10] | [11] | [24] | [30] | [44]
0.195 µg/mL: [38]
0.05 µg/mL: [8] | [23]
0.013 µg/mL: [27] | [34]
< 0.01 µg/mL: [2] | [5] | [39] | [41] | [46]
0.03 µg/mL: [12] | [35]
0.4 µg/mL: [7] | [9]
0.01 µg/mL: [3] | [6] | [40] | [42] | [43]
0.391 µg/mL: [33]
0.1 µg/mL: [1] | [15] | [17] | [20] | [22] | [25] | [31] | [32]
0.098 µg/mL: [19] | [26] | [36]
0.2 µg/mL: all other assays above
